The experiment has as its target ROCK2 (Homo sapiens, UniProt O75116). The experiment in a line: ROCK2 kinase inhibition assay (LABCHIP 3000 Reader, FITC peptide substrate).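 Note: rho kinase reaction read by separating phosphorylated from unphosphorylated peptide on chip, with inhibition of kinase activity computed per concentration across a dose-response series.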

Where a name gives a salt, the structure may show the parent alone. A value given as a limit tells only on which side of the number the result lay.

ROCK2, sequence (O75116 whole entry, species assumed): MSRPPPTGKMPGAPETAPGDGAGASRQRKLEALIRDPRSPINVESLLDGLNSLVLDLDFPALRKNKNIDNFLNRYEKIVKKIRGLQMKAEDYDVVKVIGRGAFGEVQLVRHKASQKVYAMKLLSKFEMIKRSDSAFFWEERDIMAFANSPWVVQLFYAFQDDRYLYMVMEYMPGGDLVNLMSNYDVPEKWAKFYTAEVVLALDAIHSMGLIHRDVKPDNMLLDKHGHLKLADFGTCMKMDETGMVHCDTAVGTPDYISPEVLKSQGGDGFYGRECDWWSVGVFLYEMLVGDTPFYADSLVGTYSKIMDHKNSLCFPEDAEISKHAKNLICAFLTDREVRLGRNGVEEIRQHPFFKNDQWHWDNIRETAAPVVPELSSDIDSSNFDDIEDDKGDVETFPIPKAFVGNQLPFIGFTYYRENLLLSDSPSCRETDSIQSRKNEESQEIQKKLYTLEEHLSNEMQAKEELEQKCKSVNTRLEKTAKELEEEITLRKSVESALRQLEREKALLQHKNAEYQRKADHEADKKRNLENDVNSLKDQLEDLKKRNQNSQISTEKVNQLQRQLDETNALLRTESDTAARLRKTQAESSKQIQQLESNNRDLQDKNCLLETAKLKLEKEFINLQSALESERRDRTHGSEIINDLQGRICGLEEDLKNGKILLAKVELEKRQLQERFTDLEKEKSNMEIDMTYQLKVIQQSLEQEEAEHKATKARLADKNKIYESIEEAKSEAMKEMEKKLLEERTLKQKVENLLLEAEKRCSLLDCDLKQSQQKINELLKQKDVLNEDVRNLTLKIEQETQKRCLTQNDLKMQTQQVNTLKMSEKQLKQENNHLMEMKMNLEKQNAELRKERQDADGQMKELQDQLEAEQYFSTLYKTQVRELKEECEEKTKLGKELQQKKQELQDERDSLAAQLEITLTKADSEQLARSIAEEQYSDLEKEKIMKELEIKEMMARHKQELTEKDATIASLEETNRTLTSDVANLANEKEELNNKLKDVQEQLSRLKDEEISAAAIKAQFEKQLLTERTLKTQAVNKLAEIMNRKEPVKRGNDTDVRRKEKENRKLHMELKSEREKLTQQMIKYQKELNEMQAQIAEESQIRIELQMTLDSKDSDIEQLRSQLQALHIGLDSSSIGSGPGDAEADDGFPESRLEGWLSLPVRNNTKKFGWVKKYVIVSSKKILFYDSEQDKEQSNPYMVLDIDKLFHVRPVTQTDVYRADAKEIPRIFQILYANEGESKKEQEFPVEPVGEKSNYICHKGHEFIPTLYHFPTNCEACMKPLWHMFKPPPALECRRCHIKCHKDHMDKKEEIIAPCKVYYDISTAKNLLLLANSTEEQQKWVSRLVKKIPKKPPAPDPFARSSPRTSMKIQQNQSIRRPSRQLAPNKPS

`CC(C)(O)COc1ccc2c(C(=O)NC3CC4(C3)CC(Oc3cc(-c5cccc(Cl)n5)ccc3C(N)=O)C4)cnn2c1` (centres unmarked) [Example 248] had an IC50 of 5 to 50 nM. `CC(C)(O)COc1ccc2c(C(=O)NC3CC4(C3)CC(Oc3cc(-c5cccc(COC(=O)NCCC(=O)O)c5)ccc3C(N)=O)C4)cnn2c1` (centres unmarked) [Example 249, 3-((((4′-carbamoyl-3′-((6-(6-(2-hydroxy-2-methylpropoxy)pyrazolo[1,5-a]pyridine-3-carboxamido)spiro[3.3]heptan-2-yl)oxy)-[1,1′-biphenyl]-3-yl)methoxy)carbonyl)amino)propanoic acid] displayed an IC50 of less than 5 nM.

`CC(C)(O)COc1ccc2c(C(=O)NC3CC4(C3)CC(Oc3cc(-c5cccc(COC(=O)NCCC(=O)OC(C)(C)C)c5)ccc3C(N)=O)C4)cnn2c1` (centres unmarked) [Example 250, tert-butyl 3-((((4′-carbamoyl-3′-((6-(6-(2-hydroxy-2-methylpropoxy)pyrazolo[1,5-a]pyridine-3-carboxamido)spiro[3.3]heptan-2-yl)oxy)-[1,1′-biphenyl]-3-yl)methoxy)carbonyl)amino)propanoate] yielded an IC50 of 50 to 250 nM.

Compound `CCCNC(=O)c1cc(F)cc(-c2ccc(C(N)=O)c(OC3CC4(CC(NC(=O)c5cnn6cc(OCC(C)(C)O)ccc56)C4)C3)c2)c1` (centres unmarked) [Example 251, 5-fluoro-3′-((6-(6-(2-hydroxy-2-methylpropoxy)pyrazolo[1,5-a]pyridine-3-carboxamido)spiro[3.3]heptan-2-yl)oxy)-N3-propyl-[1,1′-biphenyl]-3,4′-dicarboxamide] yielded an IC50 of 5 to 50 nM.

Turning to `CC(C)(O)COc1ccc2c(C(=O)NC3CC4(C3)CC(Oc3cc(-c5cccc(CN)c5)ccc3C(N)=O)C4)cnn2c1` (centres unmarked) [Example 252, N-(6-((3′-(aminomethyl)-4-carbamoyl-[1,1′-biphenyl]-3-yl)oxy)spiro[3.3]heptan-2-yl)-6-(2-hydroxy-2-methylpropoxy)pyrazolo[1,5-a]pyridine-3-carboxamide], the IC50 lay within 5 to 50 nM.

The compound `CC(C)(O)COc1ccc2c(C(=O)NC3CC4(C3)CC(Oc3cc(-c5cc(F)cc(C#N)c5)ccc3C(N)=O)C4)cnn2c1` (centres unmarked) [Example 253, N-(6-((4-carbamoyl-3′-cyano-5′-fluoro-[1,1′-biphenyl]-3-yl)oxy)spiro[3.3]heptan-2-yl)-6-(2-hydroxy-2-methylpropoxy)pyrazolo[1,5-a]pyridine-3-carboxamide] returned an IC50 of 5 to 50 nM.

Consider `CC(C)(O)COc1ccc2c(C(=O)NC3CC4(C3)CC(Oc3cc(-c5cc(C#N)cc([N+](=O)[O-])c5)ccc3C(N)=O)C4)cnn2c1` (centres unmarked) [Example 254, N-(6-((4-carbamoyl-3′-cyano-5′-nitro-[1,1′-biphenyl]-3-yl)oxy)spiro[3.3]heptan-2-yl)-6-(2-hydroxy-2-methylpropoxy)pyrazolo[1,5-a]pyridine-3-carboxamide], for which the IC50 is 5 to 50 nM. Turning to `CC(C)(O)COc1ccc2c(C(=O)NC3CC4(C3)CC(Oc3cc(-c5cc(C(=O)O)cc(C(=O)O)c5)ccc3C(N)=O)C4)cnn2c1` (centres unmarked) [Example 255, 4′-carbamoyl-3′-((6-(6-(2-hydroxy-2-methylpropoxy)pyrazolo[1,5-a]pyridine-3-carboxamido)spiro[3.3]heptan-2-yl)oxy)-[1,1′-biphenyl]-3,5-dicarboxylic acid], the IC50 lay in the range of 5 to 50 nM. The value for `CC(C)(O)COc1ccc2c(C(=O)NC3CC4(C3)CC(Oc3cc(-c5cccnc5)ccc3C(N)=O)C4)cnn2c1` (centres unmarked) [Example 256, N-(6-(2-carbamoyl-5-(pyridin-3-yl)phenoxy)spiro[3.3]heptan-2-yl)-6-(2-hydroxy-2-methylpropoxy)pyrazolo[1,5-a]pyridine-3-carboxamide] was 5 to 50 nM; that for `CC(C)(O)COc1ccc2c(C(=O)NC3CC4(C3)CC(Oc3cc(-c5cccc(C(N)C(=O)O)c5)ccc3C(N)=O)C4)cnn2c1` (centres unmarked) [Example 257, 2-amino-2-(4′-carbamoyl-3′-((6-(6-(2-hydroxy-2-methylpropoxy)pyrazolo[1,5-a]pyridine-3-carboxamido)spiro[3.3]heptan-2-yl)oxy)-[1,1′-biphenyl]-3-yl)acetic Acid] was 5 to 50 nM. As for `CC(C)(O)COc1ccc2c(C(=O)NC3CC4(C3)CC(Oc3cc(-c5cc(CO)cc(CO)c5)ccc3C(N)=O)C4)cnn2c1` (centres unmarked) [Example 258, N-(6-((4-carbamoyl-3′,5′-bis(hydroxymethyl)-[1,1′-biphenyl]-3-yl)oxy)spiro[3.3]heptan-2-yl)-6-(2-hydroxy-2-methylpropoxy)pyrazolo[1,5-a]pyridine-3-carboxamide], the IC50 was less than 5 nM. Regarding `CC(C)(O)COc1ccc2c(C(=O)NC3CC4(C3)CC(Oc3cc(O)ccc3C(N)=O)C4)cnn2c1` (centres unmarked) [Example 259, N-(6-(2-carbamoyl-5-hydroxyphenoxy)spiro[3.3]heptan-2-yl)-6-(2-hydroxy-2-methylpropoxy)pyrazolo[1,5-a]pyridine-3-carboxamide], the IC50 lay in the range of 5 to 50 nM.

Regarding `CC(C)(O)COc1ccc2c(C(=O)NC3CC4(C3)CC(Oc3cc(N5CC(N)C5)ccc3C(N)=O)C4)cnn2c1` (centres unmarked) [Example 260, N-(6-(5-(3-aminoazetidin-1-yl)-2-carbamoylphenoxy)spiro[3.3]heptan-2-yl)-6-(2-hydroxy-2-methylpropoxy)pyrazolo[1,5-a]pyridine-3-carboxamide, TFA], the IC50 was in the range of 5 to 50 nM. Regarding `CC(C)(O)COc1ccc2c(C(=O)NC3CC4(C3)CC(Oc3cc(-c5cccc(CCN)c5)ccc3C(N)=O)C4)cnn2c1` (centres unmarked) [Example 261, N-(6-((3′-(2-aminoethyl)-4-carbamoyl-[1,1′-biphenyl]-3-yl)oxy)spiro[3.3]heptan-2-yl)-6-(2-hydroxy-2-methylpropoxy)pyrazolo[1,5-a]pyridine-3-carboxamide], the IC50 was less than 5 nM. The value for `CN(C)CCCc1ccc(C(N)=O)c(OC2CC3(CC(NC(=O)c4cnn5cc(OCC(C)(C)O)ccc45)C3)C2)c1` (centres unmarked) [Example 262, N-(6-(2-carbamoyl-5-(3-(dimethylamino)propyl)phenoxy)spiro[3.3]heptan-2-yl)-6-(2-hydroxy-2-methylpropoxy)pyrazolo[1,5-a]pyridine-3-carboxamide] was 5 to 50 nM; that for `CN(C)CCCc1ccc(C(N)=O)c(OC2CC3(CC(NC(=O)c4cnn5c(C6CC6)c(OCC(C)(C)O)ccc45)C3)C2)c1` (centres unmarked) [Example 263, N-(6-(2-carbamoyl-5-(3-(dimethylamino)propyl)phenoxy)spiro[3.3]heptan-2-yl)-7-cyclopropyl-6-(2-hydroxy-2-methylpropoxy)pyrazolo[1,5-a]pyridine-3-carboxamide] was 5 to 50 nM; that for `CC(C)(O)COc1ccc2c(C(=O)NC3CC4(C3)CC(Oc3cc(CCCN5CCOCC5)ccc3C(N)=O)C4)cnn2c1` (centres unmarked) [Example 264, N-(6-(2-carbamoyl-5-(3-morpholinopropyl)phenoxy)spiro[3.3]heptan-2-yl)-6-(2-hydroxy-2-methylpropoxy)pyrazolo[1,5-a]pyridine-3-carboxamide] was 50 to 250 nM. The value for `CC(C)(O)COc1ccc2c(C(=O)NC3CC4(C3)CC(Oc3cc(CCCN5CCOCC5)ccc3C(N)=O)C4)cnn2c1C1CC1` (centres unmarked) [Example 265, N-(6-(2-carbamoyl-5-(3-morpholinopropyl)phenoxy)spiro[3.3]heptan-2-yl)-7-cyclopropyl-6-(2-hydroxy-2-methylpropoxy)pyrazolo[1,5-a]pyridine-3-carboxamide] was 5 to 50 nM; that for `CN1CCN(CCCc2ccc(C(N)=O)c(OC3CC4(CC(NC(=O)c5cnn6cc(OCC(C)(C)O)ccc56)C4)C3)c2)CC1` (centres unmarked) [Example 266, N-(6-(2-carbamoyl-5-(3-(4-methylpiperazin-1-yl)propyl)phenoxy)spiro[3.3]heptan-2-yl)-6-(2-hydroxy-2-methylpropoxy)pyrazolo[1,5-a]pyridine-3-carboxamide] was 50 to 250 nM. The value for `CN1CCN(CCCc2ccc(C(N)=O)c(OC3CC4(CC(NC(=O)c5cnn6c(C7CC7)c(OCC(C)(C)O)ccc56)C4)C3)c2)CC1` (centres unmarked) [Example 267, N-(6-(2-carbamoyl-5-(3-(4-methylpiperazin-1-yl)propyl)phenoxy)spiro[3.3]heptan-2-yl)-7-cyclopropyl-6-(2-hydroxy-2-methylpropoxy)pyrazolo[1,5-a]pyridine-3-carboxamide] was 5 to 50 nM. With `CC(C)(O)COc1ccc2c(C(=O)NC3CC4(C3)CC(Oc3c(F)cc(F)cc3C(N)=O)C4)cnn2c1` (centres unmarked) [Example 268, N-(6-(2-carbamoyl-4,6-difluorophenoxy)spiro[3.3]heptan-2-yl)-6-(2-hydroxy-2-methylpropoxy)pyrazolo[1,5-a]pyridine-3-carboxamide], the IC50 was in the range of 250 to 2500 nM. The value for `CC(C)(O)COc1ccc2c(C(=O)NC3CC4(C3)CC(Oc3c(F)cc(F)cc3C(N)=O)C4)cnn2c1C1CC1` (centres unmarked) [Example 269, N-(6-(2-carbamoyl-4,6-difluorophenoxy)spiro[3.3]heptan-2-yl)-7-cyclopropyl-6-(2-hydroxy-2-methylpropoxy)pyrazolo[1,5-a]pyridine-3-carboxamide] was 50 to 250 nM. The value for `CC(C)(O)COc1ccc2c(C(=O)NC3CC4(C3)CC(Oc3ccc(F)cc3C(N)=O)C4)cnn2c1` (centres unmarked) [Example 270, N-(6-(2-carbamoyl-4-fluorophenoxy)spiro[3.3]heptan-2-yl)-6-(2-hydroxy-2-methylpropoxy)pyrazolo[1,5-a]pyridine-3-carboxamide] was 50 to 250 nM; that for `CC(C)(O)COc1ccc2c(C(=O)NC3CC4(C3)CC(Oc3ccc(F)cc3C(N)=O)C4)cnn2c1C1CC1` (centres unmarked) [Example 271, N-(6-(2-carbamoyl-4-fluorophenoxy)spiro[3.3]heptan-2-yl)-7-cyclopropyl-6-(2-hydroxy-2-methylpropoxy)pyrazolo[1,5-a]pyridine-3-carboxamide] was 5 to 50 nM.

`CC(C)(O)COc1ccc2c(C(=O)NC3CC4(C3)CC(Oc3cc(Br)ccc3C(N)=O)C4)cnn2c1` (centres unmarked) [Example 272, N-(6-(5-bromo-2-carbamoylphenoxy)spiro[3.3]heptan-2-yl)-6-(2-hydroxy-2-methylpropoxy)pyrazolo[1,5-a]pyridine-3-carboxamide] showed an IC50 of less than 5 nM. The value for `CC(C)(O)COc1ccc2c(C(=O)NC3CC4(C3)CC(Oc3cc(C5CC5)ccc3C(N)=O)C4)cnn2c1` (centres unmarked) [Example 273, N-(6-(2-carbamoyl-5-cyclopropylphenoxy)spiro[3.3]heptan-2-yl)-6-(2-hydroxy-2-methylpropoxy)pyrazolo[1,5-a]pyridine-3-carboxamide] was 5 to 50 nM.

A word on the IC50: it is the midpoint of a concentration-inhibition curve. A higher IC50 goes with weaker potency in that assay.

The record behind these values is US10829501B2 (BRISTOL-MYERS SQUIBB COMPANY, priority 2016, dated 2020).
